Measured values taken from patent US20120022143A1, “RNA Interference Mediated Inhibition of the Thymic Stromal Lymphopoietin (TSLP) Gene Expression Using Short Interfering Nucliec Acid (siNA)” (Merck Sharp & Dohme Corp, priority 2009, published 2012).
[invAb] = inverted abasic unit; d = 2'-deoxy (DNA); m = 2'-O-methyl; r = 2'-OH (RNA); f = 2'-fluoro

Experiments:
TSLP protein = assay: TSLP ELISA in IL-1β/TNFα-stimulated NHLF cells; type: cell-based, human; conditions: relative to UC3 siRNA at matched concentration, siNA range 10 nM-0.00015 nM, concentration of the value not stated, mean ± s.d.
Method: In a 96-well plate, 57,500 NHLFcells/well were seeded in 100 uL of complete growth media and incubated overnight at 37° C. with 5% CO2. The cells were transfected with siNAs using RNAiMax (Invitrogen, Cat#13778-150); final concentration of siNAs is 10 nM-0.00015 nM. The amount of RNAiMax in each well is 0.3 uL. The siNAs were incubated for 6 hours. The medium was replaced with 95 uL of fresh complete growth medium and 5 uL/well of IL-1β/TNFα at 10 ng/ml final concentration was added. The cells were incubated for 24 hours. 95 uL of the medium from each well was collected into a separate 96-well plate. The samples were frozen immediately at −80° C. until ready the assay was ready to be performed.
ELISA was performed using DuoSet ELISA Development System (R&D systems, Cat # DY1398) according to the manufacturer's instructions. A seven point standard curve using 2-fold serial dilution in reagent diluent buffer and a high standard of 1000 pg/ml was used. The samples were not diluted. Absorbance was obtained at […] (LM1) and […] (LM2) and the difference (LM1-LM2) was recorded on a SpectraMax plate reader (Molecular Devices) within 30 minutes of stopping the reaction.
Various siNAs were also evaluated for their potential to knock-down TSLP protein using an ELISA assay. Six siNAs were tested in an TSLP ELISA assay across a range of concentrations of siNAs and the level of reduction of protein was determined relative to treatment of the cells with identical concentrations of the negative universal control siNA (UC3) (see Table 6).

TSLP mRNA [1] = assay: Initial screening: TSLP mRNA knock-down by RT-PCR (Taqman) after RNAiMax transfection of NHLF cells; type: cell-based; conditions: 10 nM siNA, human NHLF cells; for % KD TSLP: 24 hrs post-transfection, relative to non-targeting control, normalized to GAPDH, mean ± s.d. from 2 experiments; for % KD TSLP (10 nM): mean ± s.d. (Table 5)
mTSLP mRNA = assay: Initial screening: mouse TSLP mRNA knock-down by RT-PCR (Taqman) after RNAiMax transfection of NIH 3T3 cells; type: cell-based; conditions: 10 nM siNA, 24 hrs post-transfection, mean ± s.d., summary from 2 screens
TSLP mRNA [2] = assay: Dose response curves of TSLP mRNA knock-down in NHLF cells; type: cell-based; conditions: human NHLF cells, mean ± s.d.; for IC50: TSLP mRNA knock-down, 12 concentrations from 0.083 fM to 30 nM; for Maximum % KD in DRC: 12 concentrations of siNA from 0.083 fM to 30 nM
Method: NHLF (human; Lonza cat# CC-2512): Cells were cultured at 37° C. in the presence of 5% CO2 and grown Fibroblast Basal Medium (Lonza cat# CC-3β2) supplemented growth factors (provided with the kit) and 100 μg/mL of streptomycin and 100 U/mL penicillin.
Dose response curves were carried out in a similar fashion in 96-well plates, while maintaining a constant amount of RNAiMax in each transfection.
RNA was extracted from a 96-well plate using the TaqMan® Gene Expression Cells-to-CT™ Kit (Cat# 4399002) with a modified protocol. Briefly, a 60 uL (1 plate) or 110 uL (2 plates) of the Lysis Solution with DNase I was dispensed into each well of the Lysis Buffer Plate (twin.tec full skirt plate). The lysis buffer and stop plates were stored at 4° C. until the cells were washed.
Each well of the reverse transcription plate required 10 uL of 2× reverse transcriptase Buffer, luL of 20× reverse transcription enzyme and 2 uL of nuclease-free water. The reverse transcription master mix was prepared by mixing 2× reverse transcription buffer, 20× reverse transcription enzyme mix, and nuclease-free water. 13 uL of the reverse transcription master mix was dispensed into each well of the reverse transcription plate (semi-skirted). A separate reverse transcription plate was prepared for each cell plate. The plate was loaded onto a Biomek NX or Biomek FX Dual-96 and the Biomek method was run. The program is programmed to automatically added 7 uL of lysate from the cell lysis procedure described above into each well of the reverse transcription plate. The plate is sealed and spun on a centrifuge (1000 rpm for 30 seconds) to settle the contents to the bottom of the reverse transcription plate. The plate is placed in a thermocycler at 37° C. for 60 min, 95° C. for 5 min, and 4° C. until the plate is removed from the thermocycler. Upon removal, if not used immediately, the plate was frozen at −20° C.
A series of probes and primers were used to detect the various mRNA transcripts of the genes of TSLP, IL-8 and GAPDH in human cell lines. All the Taqman probes and primers for the experiments here-in described were supplied as pre-validated sets by Applied Biosystems, Inc. (see Table 2). The assays were performed on an ABI 7900 instrument, according to the manufacturer's instructions.
A TaqMan Gene Expression Master Mix (provided in the Cells-to-CT™, Applied Biosystems, Cat #4399002) was used. The PCR reactions were carried out at 50° C. for 2 min, 95° C. for 20 min followed by 40 cycles at 95° C. for 15 secs and 60° C. for 1 min.
The expression level of the gene of interest and % knock-down was calculated using Comparative Ct method: […]
All calculations of IC50s were performed using SigmaPlot 10.0 software. The data were analyzed using the sigmoidal dose-response (variable slope) equation for simple ligand binding. In all of the calculations of the % knock-down, the calculation was made relative to the normalized level of expression of the gene of interest in the samples treated with the non-targeting control (Ctrl siNA) unless otherwise indicated.
Summary data, as to potency and efficacy for TSLP mRNA knock-down in human cells for certain siNA molecules, is presented in Table 5. Cells for the experiments were treated with 12 concentrations of siNA ranging from 0.083 fM to 30 nM. All of the data is presented as % knockdown of TSLP normalized against the expression of GAPDH mRNA expression level. Then the data was determined as a % knockdown relative to the non-targeting control siNA.

Substance	% Reduction TSLP Protein (TSLP protein) [%]	% KD TSLP (TSLP mRNA [1])	% KD TSLP (10 nM) (TSLP mRNA [1]) [%]	% KD mTSLP NIH3T3 (mTSLP mRNA) [%]	IC50 (TSLP mRNA [2]) [pM]	Maximum % KD in DRC (TSLP mRNA [2]) [%]
25450-DC: siNA duplex: sense B AuuuuGuGAAcAcuuuuGA TTB (SEQ ID NO: 83), antisense UCAAAAGuGuucAcAAAAuUU (SEQ ID NO: 84) (sense AUUUUGUGAACACUUUUGATT; antisense UCAAAAGUGUUCACAAAAUUU; sense: DNA at AGT, 2'-fluoro at CU, [invAb] at 5' end, 3' end, backbone not given here; antisense: sugars from the 5' end rrrmmmmfmfffmfmmmmfmm, backbone not given here)	44 ± 27.9	82 ± 9.8%	82 ± 9.8	8.8 ± 11	1.5 ± 0.3	75 ± 2
25434-DC: siNA duplex: sense B GuGGuAuAuAcAAGuAGAu TTB (SEQ ID NO: 51), antisense AUCuAcuuGuAuAuAccAcUU (SEQ ID NO: 52) (sense GUGGUAUAUACAAGUAGAUTT; antisense AUCUACUUGUAUAUACCACUU; sense: DNA at AGT, 2'-fluoro at CU, [invAb] at 5' end, 3' end, backbone not given here; antisense: sugars from the 5' end rrrfmfffmfmfmfmffmfmm, backbone not given here)	82.1 ± 11.8	85 ± 7.6%	85 ± 7.6	12.6 ± 6.5	6.7 ± 2.5	79 ± 3
25449-DC: siNA duplex: sense B AGAAGAGuuucuuAAcuuA TTB (SEQ ID NO: 81), antisense UAAGuuAAGAAAcucuucuUU (SEQ ID NO: 82) (sense AGAAGAGUUUCUUAACUUATT; antisense UAAGUUAAGAAACUCUUCUUU; sense: sugars from the 5' end d7 f6 d2 f3 d3, [invAb] at 5' end, 3' end, backbone not given here; antisense: sugars from the 5' end rrrmffmmmmmmfffffffmm, backbone not given here)	45 ± 23.2	84 ± 2.1%	84 ± 2.1	52.9 ± 11.8	10.2 ± 3.1	82 ± 1
25438-DC: siNA duplex: sense B GAAGcAAuuuGAAAuAAuu TTB (SEQ ID NO: 59), antisense AAUuAuuucAAAuuGcuucUU (SEQ ID NO: 60) (sense GAAGCAAUUUGAAAUAAUUTT; antisense AAUUAUUUCAAAUUGCUUCUU; sense: DNA at AGT, 2'-fluoro at CU, [invAb] at 5' end, 3' end, backbone not given here; antisense: sugars from the 5' end rrrfmffffmmmffmffffmm, backbone not given here)	51.9 ± 14.1	85 ± 6.8%	85 ± 6.8	9.8 ± 12.2	4.1 ± 1.2	79 ± 4
25436-DC: siNA duplex: sense B GccAAGuuuuAAAuAuuAu TTB (SEQ ID NO: 55), antisense AUAAuAuuuAAAAcuuGGcUU (SEQ ID NO: 56) (sense GCCAAGUUUUAAAUAUUAUTT; antisense AUAAUAUUUAAAACUUGGCUU; sense: DNA at AGT, 2'-fluoro at CU, [invAb] at 5' end, 3' end, backbone not given here; antisense: sugars from the 5' end rrrmfmfffmmmmfffmmfmm, backbone not given here)	71.7 ± 20.3	90 ± 5.1%	90 ± 5.1	19.3 ± 6.1	4.1 ± 1.6	86 ± 3
25446-DC: siNA duplex: sense B cAGAAGAGuuucuuAAcuu TTB (SEQ ID NO: 75), antisense AAGuuAAGAAAcucuucuGUU (SEQ ID NO: 76) (sense CAGAAGAGUUUCUUAACUUTT; antisense AAGUUAAGAAACUCUUCUGUU; sense: DNA at AGT, 2'-fluoro at CU, [invAb] at 5' end, 3' end, backbone not given here; antisense: sugars from the 5' end r3 f2 m6 f7 m3, backbone not given here)	64.7 ± 3.5	84 ± 3.6%	84 ± 3.6	−32.1 ± 18.3	9.1 ± 2.4	85 ± 2
25435-DC: siNA duplex: sense B cccAAGcucuuAAAuGcuA TTB (SEQ ID NO: 53), antisense UAGcAuuuAAGAGcuuGGGUU (SEQ ID NO: 54) (sense CCCAAGCUCUUAAAUGCUATT; antisense UAGCAUUUAAGAGCUUGGGUU; sense: DNA at AGT, 2'-fluoro at CU, [invAb] at 5' end, 3' end, backbone not given here; antisense: sugars from the 5' end rrrfmfffmmmmmfffmmmmm, backbone not given here)		−8 ± 25.4%		−60.6 ± 5.4		
25459-DC: siNA duplex: sense B uGcccAGGcuAcccuGAAA TTB (SEQ ID NO: 101), antisense UUUcAGGGuAGccuGGGcAUU (SEQ ID NO: 102) (sense UGCCCAGGCUACCCUGAAATT; antisense UUUCAGGGUAGCCUGGGCAUU; sense: DNA at AGT, 2'-fluoro at CU, [invAb] at 5' end, 3' end, backbone not given here; antisense: sugars from the 5' end rrrfmmmmfmmfffmmmfmmm, backbone not given here)		−6 ± 27^ %		15.7 ± 1.6		
